According to paper PMC8882856, “The affinity and selectivity of α‐adrenoceptor antagonists, antidepressants and antipsychotics for the human α2A, α2B, and α2C‐adrenoceptors and comparison with human α1 and β‐adrenoceptors” (Pharmacology Research & Perspectives, 2022):
Read-outs that look alike come from different tables or passages of the source.

Experiments:
[1] = biological target: T1, human α2A‐adrenoceptor (Homo sapiens, UniProt P08913); experiment: ^3H‐rauwolscine whole cell competition binding, CHO‐α2A cells; conditions: for Selectivity ratio α2A vs α2B (α2A-selective): fold, higher affinity at α2A than α2B, 1 = no selectivity; for Log KD α2A: given as log KD (negative values), 3H-rauwolscine whole cell binding, CHO cells, mean ± s.e.mean
T1 sequence (P08913 1-465): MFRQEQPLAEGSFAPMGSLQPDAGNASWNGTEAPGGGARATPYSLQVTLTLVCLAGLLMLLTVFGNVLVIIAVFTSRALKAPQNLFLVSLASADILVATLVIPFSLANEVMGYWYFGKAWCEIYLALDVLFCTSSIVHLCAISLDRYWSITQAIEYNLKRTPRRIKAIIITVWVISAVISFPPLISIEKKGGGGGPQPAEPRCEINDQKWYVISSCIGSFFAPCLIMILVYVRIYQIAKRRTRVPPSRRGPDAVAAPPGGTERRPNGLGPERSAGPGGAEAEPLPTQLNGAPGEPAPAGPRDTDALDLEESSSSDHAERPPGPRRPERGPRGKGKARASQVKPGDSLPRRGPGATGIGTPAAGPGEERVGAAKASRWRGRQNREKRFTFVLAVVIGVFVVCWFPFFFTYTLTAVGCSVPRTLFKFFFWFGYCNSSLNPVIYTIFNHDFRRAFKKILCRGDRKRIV

[2] = biological target: human β1‐adrenoceptor (Homo sapiens, UniProt P08588); conditions: for Log KD β1: mean ± s.e.mean
Sequence of human β1‐adrenoceptor (P08588 whole entry): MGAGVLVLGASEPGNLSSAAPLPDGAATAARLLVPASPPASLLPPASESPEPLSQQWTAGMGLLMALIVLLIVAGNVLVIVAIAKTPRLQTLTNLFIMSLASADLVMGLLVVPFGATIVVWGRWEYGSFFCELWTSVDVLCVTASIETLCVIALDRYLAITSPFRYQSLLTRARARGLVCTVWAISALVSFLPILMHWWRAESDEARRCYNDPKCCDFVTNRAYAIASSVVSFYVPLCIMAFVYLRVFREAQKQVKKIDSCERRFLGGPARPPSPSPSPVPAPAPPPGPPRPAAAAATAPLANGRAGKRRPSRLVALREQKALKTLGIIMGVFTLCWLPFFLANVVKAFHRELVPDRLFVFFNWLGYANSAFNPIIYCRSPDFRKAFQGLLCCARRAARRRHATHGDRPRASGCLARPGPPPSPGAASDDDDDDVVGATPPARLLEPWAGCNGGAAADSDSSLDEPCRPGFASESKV

[3] = biological target: T2, human α2C‐adrenoceptor (Homo sapiens, UniProt P18825); experiment: ^3H‐rauwolscine whole cell competition binding, CHO‐α2C cells; conditions: for Selectivity ratio α2A vs α2C (α2C-selective) / Selectivity ratio α2B vs α2C (α2C-selective): fold, 1 = no selectivity; for Selectivity ratio α2A vs α2C (α2C-selective): higher affinity at α2C than α2A; for Selectivity ratio α2B vs α2C (α2C-selective): higher affinity at α2C than α2B; for Log KD α2C: given as log KD (negative values), 3H-rauwolscine whole cell binding, CHO cells, mean ± s.e.mean
T2 sequence (P18825 1-462): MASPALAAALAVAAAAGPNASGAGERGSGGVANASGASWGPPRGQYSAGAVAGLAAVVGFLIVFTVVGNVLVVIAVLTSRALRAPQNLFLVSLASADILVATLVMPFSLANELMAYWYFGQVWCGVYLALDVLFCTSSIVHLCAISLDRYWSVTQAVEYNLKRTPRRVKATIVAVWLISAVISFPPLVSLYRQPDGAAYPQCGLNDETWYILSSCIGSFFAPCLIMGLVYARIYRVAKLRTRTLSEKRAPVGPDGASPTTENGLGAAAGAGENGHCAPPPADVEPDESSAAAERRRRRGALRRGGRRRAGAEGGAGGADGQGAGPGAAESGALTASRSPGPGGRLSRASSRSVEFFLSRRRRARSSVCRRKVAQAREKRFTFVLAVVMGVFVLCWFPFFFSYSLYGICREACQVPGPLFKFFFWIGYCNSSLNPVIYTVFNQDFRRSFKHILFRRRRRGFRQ

[4] = biological target: human β2‐adrenoceptor (Homo sapiens, UniProt P07550); type: binding; conditions: for IC50 (log) β2: printed as log IC50 bound (negative) in the Log KD β2 column, 3H-CGP12177
Sequence of human β2‐adrenoceptor (P07550 whole entry): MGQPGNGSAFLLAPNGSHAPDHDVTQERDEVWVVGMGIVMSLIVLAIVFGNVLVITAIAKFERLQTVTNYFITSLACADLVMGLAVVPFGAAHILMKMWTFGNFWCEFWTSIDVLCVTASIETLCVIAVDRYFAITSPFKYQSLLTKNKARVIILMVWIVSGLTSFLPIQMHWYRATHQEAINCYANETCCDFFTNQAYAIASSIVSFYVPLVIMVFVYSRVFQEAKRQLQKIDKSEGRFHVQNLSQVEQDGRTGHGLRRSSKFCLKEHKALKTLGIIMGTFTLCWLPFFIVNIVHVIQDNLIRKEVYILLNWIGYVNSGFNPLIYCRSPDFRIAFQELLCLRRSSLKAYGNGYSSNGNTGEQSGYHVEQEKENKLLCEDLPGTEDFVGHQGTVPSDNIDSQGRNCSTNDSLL

[5] = biological target: T3, human α2B‐adrenoceptor (Homo sapiens, UniProt P18089); experiment: ^3H‐rauwolscine whole cell competition binding, CHO‐α2B cells; conditions: for Log KD α2B: given as log KD (negative values), 3H-rauwolscine whole cell binding, CHO cells, mean ± s.e.mean
T3 sequence (P18089 1-450): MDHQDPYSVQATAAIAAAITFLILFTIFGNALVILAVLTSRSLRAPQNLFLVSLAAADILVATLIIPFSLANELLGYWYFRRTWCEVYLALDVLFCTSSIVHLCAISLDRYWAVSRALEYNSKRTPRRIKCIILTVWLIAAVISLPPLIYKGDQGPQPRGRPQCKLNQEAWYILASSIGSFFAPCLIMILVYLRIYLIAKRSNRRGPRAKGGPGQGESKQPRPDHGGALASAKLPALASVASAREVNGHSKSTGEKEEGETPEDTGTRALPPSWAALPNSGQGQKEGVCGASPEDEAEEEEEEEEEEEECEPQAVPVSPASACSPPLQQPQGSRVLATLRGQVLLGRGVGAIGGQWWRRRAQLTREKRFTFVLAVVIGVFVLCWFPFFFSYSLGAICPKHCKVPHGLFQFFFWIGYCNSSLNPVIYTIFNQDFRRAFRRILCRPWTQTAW

[6] = given as log KD (negative values), 3H-CGP12177 whole cell binding, CHO cells
[7] = proportion of site 1 in two-site fit
[8] = two-component inhibition, proportion of higher affinity site
[9] = ^3H‐CGP12177 whole cell binding, log values, ^app = apparent KD, 'no binding to' = log top concentration
[10] = ^3H‐CGP12177 whole cell binding, log values, mean ± s.e.mean, ^app = apparent KD, 'no binding to' = log top concentration
[11] = given as log KD (negative values), 3H-CGP12177 whole cell binding, CHO cells, mean ± s.e.mean

Structure (SMILES) | Log KD α2A [1] | Log KD β1 [2, 6] | Log KD α2C [3] | Log KD α2B [5] | Log KD β1 [2, 9] | Log KD β2 [4, 10] | Log KD β2 [4, 11] | further results
O=C1Nc2ccccc2C2=NC(CN3CCN(c4ccccc4)CC3)CN12 (stereo not shown) [2-PMDQ] | -6.83 ± 0.05 | No binding to -4 | -7.07 ± 0.02 | -6.14 ± 0.08 | – | – | – | Selectivity ratio α2A vs α2B (α2A-selective) [1]: 4.9; Selectivity ratio α2A vs α2C (α2C-selective) [3]: 1.7; Selectivity ratio α2B vs α2C (α2C-selective) [3]: 8.5; IC50 (log) β2 [4]: IC50>-4
COc1ccccc1N1CCN(CC2CN3C(=O)N(C)c4ccccc4C3=N2)CC1 (stereo not shown) [2-MPMDQ] | -6.79 ± 0.04 | – | -7.50 ± 0.02 | -5.94 ± 0.09 | – | – | – | Selectivity ratio α2A vs α2B (α2A-selective) [1]: 7.1; IC50 (log) β1 ([2]; printed as log IC50 bound (negative) in the Log KD β1 column, 3H-CGP12177): IC50>-5; Selectivity ratio α2A vs α2C (α2C-selective) [3]: 5.1; Selectivity ratio α2B vs α2C (α2C-selective) [3]: 36.3; IC50 (log) β2 [4]: IC50>-5
CC(COc1ccccc1)N(CCCl)Cc1ccccc1 (stereo not shown) [phenoxybenzamine] | – | – | – | – | – | – | – | % site 1 α2C (percentage through first component) [3]: −6.41 ± 0.11 −4.71 ± 0.13 74.1 ± 4.1% site 1; % site 1, α2C [3, 7]: 74.1 ± 4.1%; % site 1, α2C [3, 8]: 74.1 ± 4.1%; % site 1 α2B (percentage through first component) [5]: −6.44 ± 0.11 −4.89 ± 0.08 51.4 ± 3.3% site 1; % site 1, α2B [5, 7]: 51.4 ± 3.3%; % site 1, α2B [5, 8]: 51.4 ± 3.3%
CC(C)(C)NC[C@H](O)COc1cccc2[nH]c(C#N)cc12 [S-cyanopindolol] | -5.56 ± 0.10 | – | -6.15 ± 0.07 | – | – | – | – | Log KD α2B, apparent affinity (app) ([5]; log KD (negative), apparent KD: maximum concentration inhibited most but not all specific binding, IC50 from extrapolated curve): -4.82 ± 0.10^app
CC(C)OC(=O)c1cc2c(OCC(O)CNC(C)(C)C)cccc2[nH]1 (stereo not shown) [SDZ 21009] | – | – | – | – | – | – | – | Log KD α2A (^app = apparent affinity) ([1]; log KD, negative sign, apparent KD from extrapolated curve, maximum concentration inhibited most but not all specific binding): -4.86 ± 0.07^app
CC(C)(C)NCC(O)COc1cccc2[nH]c(C#N)cc12 (stereo not shown) [cyanopindolol] | – | – | – | – | – | – | – | Kd [1]: 2750 nM; Kd [3]: 708 nM; Kd [5]: 15100 nM
O=C1Cc2cc(CCN3CCN(c4nsc5ccccc45)CC3)c(Cl)cc2N1 [ziprasidone] | – | No binding to -4 | – | – | No binding to −4 | No binding to −4 | No binding to -4 | –
CCC1(C2=NCCN2)Cc2ccccc2O1 (stereo not shown) [eforaxan] | – | no binding to -3 | – | – | no binding to −3 | no binding to −3 | no binding to -3 | –
CCC1(c2cnc[nH]2)Cc2ccccc2C1 [atipamezole] | – | No binding to -4.5 | – | – | No binding to −4.5 | No binding to −4.5 | No binding to -4.5 | Kd [1]: 3.16 nM
COc1ccccc1N1CCN(CCCNc2c(C)c(=O)n(C)c(=O)n2C)CC1 [5-methyl-urapidil] | -5.18 ± 0.05 | – | -5.81 ± 0.07 | -5.17 ± 0.05 | – | – | – | Log KD β2 [4]: -5.00 ± 0.07
